From the NIST ThermoML archive (doi:10.1021/je500380x)
± gives the expanded uncertainty stated by the source.

Experiment: mn = molality of the nth substance listed, in mol/kg
Details: 100 kPa, Liquid; for electrical conductivity: Alternating current cell with electrodes; for viscosity: Falling or rolling sphere viscometry; for mass density: Vibrating tube method

CCC(=O)OCCN1CCNCC1 [2-(piperazin-1-yl)ethyl propionate] + CO
Details	electrical conductivity [S/m]	mass density [kg/m3]	viscosity [mPa·s]
293.15 K, m1 = 0.05	0.128 ± 0.0013	794.44 ± 0.15	0.613 ± 0.008
293.15 K, m1 = 0.1001	0.211 ± 0.002	797.52 ± 0.15	0.632 ± 0.008
293.15 K, m1 = 0.2006	0.339 ± 0.003	803.64 ± 0.15	0.675 ± 0.008
293.15 K, m1 = 0.3003	0.432 ± 0.004	809.65 ± 0.15	0.72 ± 0.009
293.15 K, m1 = 0.3995	0.506 ± 0.005	815.7 ± 0.15	0.771 ± 0.01
293.15 K, m1 = 0.5005	0.566 ± 0.006	821.73 ± 0.15	0.828 ± 0.01
293.15 K, m1 = 0.6006	0.617 ± 0.006	827.94 ± 0.14	0.89 ± 0.011
293.15 K, m1 = 0.7007	0.657 ± 0.007	834.12 ± 0.14	0.954 ± 0.012
293.15 K, m1 = 0.8007	0.688 ± 0.007	840.22 ± 0.14	1.033 ± 0.013
293.15 K, m1 = 0.9008	0.712 ± 0.007	846.35 ± 0.14	1.118 ± 0.014
293.15 K, m1 = 1.001	0.732 ± 0.007	852.36 ± 0.14	1.219 ± 0.015
293.15 K, m1 = 1.2	0.757 ± 0.008	864.62 ± 0.14	1.426 ± 0.018
293.15 K, m1 = 1.401	0.752 ± 0.008	877.59 ± 0.13	1.719 ± 0.021
293.15 K, m1 = 1.6	0.737 ± 0.007	890.02 ± 0.13	2.09 ± 0.026
293.15 K, m1 = 1.801	0.706 ± 0.007	903.1 ± 0.13	2.581 ± 0.032
293.15 K, m1 = 2	0.656 ± 0.007	916.07 ± 0.13	3.261 ± 0.04
293.15 K, m1 = 2.203	0.605 ± 0.006	929.95 ± 0.12	4.138 ± 0.051
293.15 K, m1 = 2.403	0.542 ± 0.005	942.83 ± 0.12	5.479 ± 0.068
293.15 K, m1 = 2.603	0.479 ± 0.005	955.65 ± 0.12	7.28 ± 0.09
293.15 K, m1 = 2.803	0.409 ± 0.004	969.71 ± 0.12	9.916 ± 0.12
293.15 K, m1 = 3.001	–	982.22 ± 0.11	14.36 ± 0.18
293.15 K, m1 = 3.006	0.342 ± 0.003	–	–
298.15 K, m1 = 0.05	0.132 ± 0.0014	789.75 ± 0.15	0.576 ± 0.007
298.15 K, m1 = 0.1001	0.218 ± 0.002	792.84 ± 0.15	0.592 ± 0.007
298.15 K, m1 = 0.2006	0.351 ± 0.004	798.96 ± 0.15	0.629 ± 0.008
298.15 K, m1 = 0.3003	0.448 ± 0.005	805.01 ± 0.15	0.671 ± 0.008
298.15 K, m1 = 0.3995	0.525 ± 0.005	811.06 ± 0.15	0.716 ± 0.009
298.15 K, m1 = 0.5005	0.59 ± 0.006	817.14 ± 0.15	0.767 ± 0.01
298.15 K, m1 = 0.6006	0.644 ± 0.006	823.36 ± 0.14	0.823 ± 0.01
298.15 K, m1 = 0.7007	0.686 ± 0.007	829.58 ± 0.14	0.881 ± 0.011
298.15 K, m1 = 0.8007	0.72 ± 0.007	835.68 ± 0.14	0.952 ± 0.012
298.15 K, m1 = 0.9008	0.748 ± 0.008	841.84 ± 0.14	1.029 ± 0.013
298.15 K, m1 = 1.001	0.77 ± 0.008	847.87 ± 0.14	1.117 ± 0.014
298.15 K, m1 = 1.2	0.794 ± 0.008	860.2 ± 0.14	1.303 ± 0.016
298.15 K, m1 = 1.401	0.797 ± 0.008	873.21 ± 0.13	1.562 ± 0.019
298.15 K, m1 = 1.6	0.784 ± 0.008	885.7 ± 0.13	1.888 ± 0.023
298.15 K, m1 = 1.801	0.755 ± 0.008	898.85 ± 0.13	2.319 ± 0.029
298.15 K, m1 = 2	0.708 ± 0.007	911.8 ± 0.13	2.909 ± 0.036
298.15 K, m1 = 2.203	0.653 ± 0.007	925.82 ± 0.12	3.661 ± 0.045
298.15 K, m1 = 2.403	0.587 ± 0.006	938.76 ± 0.12	4.801 ± 0.059
298.15 K, m1 = 2.603	0.518 ± 0.005	951.62 ± 0.12	6.312 ± 0.078
298.15 K, m1 = 2.803	0.457 ± 0.005	964.72 ± 0.12	8.495 ± 0.11
298.15 K, m1 = 3.001	–	978.3 ± 0.11	12.13 ± 0.15
298.15 K, m1 = 3.006	0.392 ± 0.004	–	–
303.15 K, m1 = 0.05	0.136 ± 0.0014	785.03 ± 0.15	0.542 ± 0.007
303.15 K, m1 = 0.1001	0.224 ± 0.002	788.13 ± 0.15	0.556 ± 0.007
303.15 K, m1 = 0.2006	0.362 ± 0.004	794.26 ± 0.15	0.589 ± 0.007
303.15 K, m1 = 0.3003	0.465 ± 0.005	800.33 ± 0.15	0.627 ± 0.008
303.15 K, m1 = 0.3995	0.547 ± 0.006	806.4 ± 0.15	0.668 ± 0.008
303.15 K, m1 = 0.5005	0.615 ± 0.006	812.5 ± 0.15	0.713 ± 0.009
303.15 K, m1 = 0.6006	0.672 ± 0.007	818.75 ± 0.15	0.764 ± 0.009
303.15 K, m1 = 0.7007	0.715 ± 0.007	824.99 ± 0.14	0.816 ± 0.01
303.15 K, m1 = 0.8007	0.756 ± 0.008	831.13 ± 0.14	0.881 ± 0.011
303.15 K, m1 = 0.9008	0.785 ± 0.008	837.3 ± 0.14	0.95 ± 0.012
303.15 K, m1 = 1.001	0.813 ± 0.008	843.36 ± 0.14	1.028 ± 0.013
303.15 K, m1 = 1.2	0.839 ± 0.008	855.75 ± 0.14	1.194 ± 0.015
303.15 K, m1 = 1.401	0.849 ± 0.009	868.82 ± 0.13	1.425 ± 0.018
303.15 K, m1 = 1.6	0.837 ± 0.008	881.35 ± 0.13	1.713 ± 0.021
303.15 K, m1 = 1.801	0.813 ± 0.008	894.62 ± 0.13	2.093 ± 0.026
303.15 K, m1 = 2	0.766 ± 0.008	907.8 ± 0.13	2.606 ± 0.032
303.15 K, m1 = 2.203	0.712 ± 0.007	921.66 ± 0.12	3.257 ± 0.04
303.15 K, m1 = 2.403	0.648 ± 0.007	934.65 ± 0.12	4.233 ± 0.052
303.15 K, m1 = 2.603	0.571 ± 0.006	947.56 ± 0.12	5.512 ± 0.068
303.15 K, m1 = 2.803	0.505 ± 0.005	960.73 ± 0.12	7.332 ± 0.091
303.15 K, m1 = 3.001	–	974.37 ± 0.12	10.32 ± 0.13
303.15 K, m1 = 3.006	0.439 ± 0.004	–	–
308.15 K, m1 = 0.05	0.139 ± 0.0014	–	0.512 ± 0.006
308.15 K, m1 = 0.1001	0.232 ± 0.002	–	0.523 ± 0.007
308.15 K, m1 = 0.2006	0.374 ± 0.004	–	0.554 ± 0.007
308.15 K, m1 = 0.3003	0.482 ± 0.005	–	0.588 ± 0.007
308.15 K, m1 = 0.3995	0.566 ± 0.006	–	0.625 ± 0.008
308.15 K, m1 = 0.5005	0.641 ± 0.006	–	0.665 ± 0.008
308.15 K, m1 = 0.6006	0.701 ± 0.007	–	0.711 ± 0.009
308.15 K, m1 = 0.7007	0.748 ± 0.008	–	0.758 ± 0.009
308.15 K, m1 = 0.8007	0.792 ± 0.008	–	0.817 ± 0.01
308.15 K, m1 = 0.9008	0.824 ± 0.008	–	0.879 ± 0.011
308.15 K, m1 = 1.001	0.858 ± 0.009	–	–
308.15 K, m1 = 1.2	0.883 ± 0.009	–	–
308.15 K, m1 = 1.401	0.892 ± 0.009	–	–
308.15 K, m1 = 1.6	0.889 ± 0.009	–	–
308.15 K, m1 = 1.801	0.862 ± 0.009	–	–
308.15 K, m1 = 2	0.818 ± 0.008	–	–
308.15 K, m1 = 2.203	0.766 ± 0.008	–	–
308.15 K, m1 = 2.403	0.703 ± 0.007	–	–
308.15 K, m1 = 2.603	0.626 ± 0.006	–	–
308.15 K, m1 = 2.803	0.559 ± 0.006	–	–
308.15 K, m1 = 3.006	0.483 ± 0.005	–	–
